Results from US11226337B2, “Chemoproteomic profiling of protein electrophilic and oxidative post-translational modifications” (Zenagem, LLC, priority 2017, dated 2022).
Values belong to the molecule of their own block, whether it stands above or below them.

Assays:
Type in all cases: cell-based
AMD1 = biological target: T1, AMD1 (Homo sapiens, UniProt P17707); test: gel-based RP-ABPP of transfected HEK293T cells
T1 construct: Full-length genes encoding three probe 1- and one probe 2-targeted proteins were amplified from a cDNA library; expressed in transfected cells; host or cells: HEK293T
T1 sequence (P17707 68-334 limits assumed): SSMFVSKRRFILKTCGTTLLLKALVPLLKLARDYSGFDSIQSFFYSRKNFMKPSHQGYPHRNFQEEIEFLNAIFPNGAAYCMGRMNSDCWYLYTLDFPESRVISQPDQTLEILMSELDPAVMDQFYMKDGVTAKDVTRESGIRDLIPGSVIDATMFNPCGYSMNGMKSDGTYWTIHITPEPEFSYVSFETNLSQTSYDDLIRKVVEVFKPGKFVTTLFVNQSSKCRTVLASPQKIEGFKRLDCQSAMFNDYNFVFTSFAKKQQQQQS
T1 sequence (P17707 1-67 limits assumed): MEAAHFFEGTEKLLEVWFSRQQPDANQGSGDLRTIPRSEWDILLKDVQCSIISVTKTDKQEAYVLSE

[1] = biological target: T2, SCRN2 Secernin-2 (Q96FV2) (Homo sapiens, UniProt Q96FV2); test: SILAC RP-ABPP; conditions: SILAC competition, drug in place of probe 3
T2 construct: shared by both the endogenous and recombinant forms of these proteins; endogenous in cells; host or cells: HEK293T and MDA-MB-231
Protocol: (§1) Modifications to this protocol included using isotopically ‘light’ and ‘heavy’ SILAC cells that were also grown to near complete confluence prior to treatment. Isotopically light cells were treated with the non-clickable hydrazine probe (at the same concentration as the probe in ‘enrichment’ experiments) or the probe in the presence of 10-fold excess non-clickable hydrazine probe as a competitor (in ‘competition’ experiments). Isotopically heavy cells were treated with the probe for both types of experiments. These treatments were performed in non-SILAC media. Following treatments, cells were washed with cold PBS to remove the probe-containing media, harvested by scraping, collected by centrifugation (1,400 g, 3 min, 4° C.), washed again by resuspension in cold PBS and frozen as pellets at −80° C. until use.
(§2) The fractionated equimolar mixture of heavy and light soluble proteomes (1-1.5 mg) was diluted to 1 mL in PBS. Click reactions were scaled accordingly (except for biotin-azide) to maintain final concentrations of 0.1 mM TBTA, 1 mM CuSO4, 100 μM biotin-azide (10 mM in DMSO) and 1 mM TCEP. The mixture was vortexed and placed on a rotator at ambient temperature for 1 hour. Sequential addition of and mixture with pre-chilled methanol (MeOH, 2 mL), chloroform (CHCl3, 0.5 mL) and PBS (1 mL) on ice quenched the reaction. The precipitated proteome was centrifuged (5,000 g, 10 min, 4° C.) to fractionate the protein interphase from the organic and aqueous solvent layers. The protein pellet was washed with cold 1:1 MeOH:CHCl3 (3×1 mL), mildly sonicated in cold 4:1 MeOH:CHCl3 (2.5 mL) and pelleted once more by centrifugation (5,000 g, 10 min, 4° C.) to ensure click reagents were efficiently removed.
(§3) Heavy and light parent ion chromatograms associated with successfully identified peptides were extracted and compared using CIMAGE software as previously described^69. At least one ion of a co-eluting heavy-light pair must be accurately identified from a fragmentation event that occurred within the retention time window (±10 min) of parent ion elution. To ensure that the correct pair of peaks is quantified, chromatograms are extracted within a 10 ppm error tolerance of the predicted m/z, the signal-to-noise ratio must be >2.5 and the ‘co-elution correlation score’ and ‘envelope correlation score’ must have R^2 values ≥0.8. In addition, peptides detected as ‘singletons,’ where only the heavy ion of a peptide pair was identified, but for which passed all other filtering parameters, are given a default assigned ratio of ‘20,’ which is defined as any measured ratio that is ≥20.
(§4) To further eliminate false positives and any stochastic variability in the data, protein ratios were then determined by the median peptide ratio derived from three or more unique quantified peptides. Protein ratios that complied with these criteria from a single experiment were then averaged with ratios acquired from ≥3 replicates to provide final values for each type of experiment in both cell lines with both probes. […] Probe targets in HEK293T and MDA-MB-231 cells represent data combined from ≥3 independent biological replicates with each cell type performed with several independent batches of synthesized probes over a period of almost two years.
(§5) Two types of experiments were performed—1) direct enrichment of probe 1-labelled proteins from heavy cells in comparison to light control cells treated with the non-clickable hydrazine (3) at the same concentration as 1 (3 mM for 0.5 h); and 2) competition experiments where both heavy and light cells were treated probe 1, but light cells were also treated with 10× competitor 3 (FIG. 3A)—in two different human cell lines (HEK293T cells and the human breast cancer cell line MDA-MB-231).

LGMN Legumain (Q99538) = biological target: T3, LGMN Legumain (Q99538) (Homo sapiens, UniProt Q99538); test: SILAC RP-ABPP; conditions: SILAC competition, drug in place of probe 3
T3 construct: shared by both the endogenous and recombinant forms of these proteins; endogenous in cells; host or cells: HEK293T and MDA-MB-231
T3 sequence (Q99538 18-323): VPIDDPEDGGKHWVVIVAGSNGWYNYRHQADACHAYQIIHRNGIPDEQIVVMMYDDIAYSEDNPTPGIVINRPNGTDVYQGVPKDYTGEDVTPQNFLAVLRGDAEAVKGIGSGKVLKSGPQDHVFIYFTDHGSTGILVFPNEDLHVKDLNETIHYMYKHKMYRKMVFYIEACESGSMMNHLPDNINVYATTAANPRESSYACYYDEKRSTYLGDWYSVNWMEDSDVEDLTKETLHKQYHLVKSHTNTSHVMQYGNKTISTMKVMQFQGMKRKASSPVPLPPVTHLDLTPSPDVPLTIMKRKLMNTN
Protocol: as §1, §2, §3, §4, §5

[2] = biological target: T4, SCRN3 Secernin-3 (Q0VDG4) (Homo sapiens, UniProt Q0VDG4); test: SILAC RP-ABPP; conditions: SILAC competition, drug in place of probe 3
T4 construct: shared by both the endogenous and recombinant forms of these proteins; endogenous in cells; host or cells: HEK293T and MDA-MB-231
T4 sequence (Q0VDG4 6-424): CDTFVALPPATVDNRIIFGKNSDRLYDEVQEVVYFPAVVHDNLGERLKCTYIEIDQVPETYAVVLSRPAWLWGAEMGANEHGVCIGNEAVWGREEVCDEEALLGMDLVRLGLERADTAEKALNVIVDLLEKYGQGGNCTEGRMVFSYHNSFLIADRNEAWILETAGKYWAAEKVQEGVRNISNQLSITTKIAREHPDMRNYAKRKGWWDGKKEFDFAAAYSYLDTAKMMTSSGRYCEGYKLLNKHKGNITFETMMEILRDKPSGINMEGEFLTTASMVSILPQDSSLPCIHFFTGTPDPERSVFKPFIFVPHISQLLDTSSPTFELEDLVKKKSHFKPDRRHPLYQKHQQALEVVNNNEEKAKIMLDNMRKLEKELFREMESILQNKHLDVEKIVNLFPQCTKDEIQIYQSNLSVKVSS
Protocol: as §1, §2, §3, §4, §5

[3] = biological target: T5, AMD1 S-adenosylmethionine decarboxylase (P17707) (Homo sapiens, UniProt P17707); test: SILAC RP-ABPP; conditions: SILAC competition, drug in place of probe 3
T5 construct: shared by both the endogenous and recombinant forms of these proteins; endogenous in cells; host or cells: HEK293T and MDA-MB-231
T5 sequence (P17707 68-334 limits assumed): T1 sequence (P17707 68-334 limits assumed)
T5 sequence (P17707 1-67 limits assumed): T1 sequence (P17707 1-67 limits assumed)
Protocol: as §1, §2, §3, §4, §5

KEAP1 = biological target: T6, KEAP1 (Homo sapiens, UniProt Q14145); test: gel-based RP-ABPP of transfected HEK293T cells; conditions: transfected HEK293T cells
T6 construct: Full-length genes encoding three probe 1- and one probe 2-targeted proteins were amplified from a cDNA library; expressed in transfected cells; host or cells: HEK293T
Protocol: (§6) Soluble proteomes from treated cells were diluted to 1 mg/mL. To each sample (50 μL), a freshly prepared “click” or CuAAC reagent mixture (6 μL) containing 0.1 mM tris(benzyltriazolylmethyl)amine (TBTA) (3 μL/sample, 1.7 mM in 4:1 DMSO:t-BuOH), 1 mM CuSO4 (1 μL/sample, 50 mM in H2O), 25 μM azide-rhodamine (1 μL/sample, 1.25 mM in DMSO), and freshly prepared 1 mM tris(2-carboxyethyl)phosphine (TCEP) (1 μL/sample, 50 mM in PBS or H2O) was added to conjugate the fluorophore to probe-labelled proteins. TBTA was purchased from TCI and azide-rhodamine was synthesized as previously described^64. Upon addition of the click mixture, each reaction was immediately mixed by vortexing and then allowed to react at ambient temperature for 1 hour before quenching the reactions with SDS loading buffer (4× stock, 17 μL). Proteins (˜25 μg total protein loaded per gel lane) were resolved by SDS-PAGE (10% acrylamide) and visualized by in-gel fluorescence scanning on a Hitachi FMBIO-II or BioRad ChemiDoc MP flatbed fluorescence scanner.
(§7) Full-length genes encoding three probe 1- and one probe 2-targeted proteins were amplified from a cDNA library derived from the same low-passage HEK293T cells used for proteomic profiling. The library was generated using Ribozol RNA extraction (Amresco) and iScript reverse transcription (Bio-rad) supermix reagents. The gene products were cloned into mammalian expression vectors containing N- or C-terminal FLAG affinity tags. The gene for S-adenosyl-L-methionine decarboxylase (AMD1 or AdoMetDC) was cloned into pFLAG-CMV-sport6 (N-terminal tag) at NotI and SalI restriction sites. AMD1, Secernin-3 (SCRN3) and fat mass- and obesity-associated Fe(II)- and 20G-dependent dioxygenase (FTO) were cloned into pRK5 (C-terminal tag) at SalI and NotI restriction sites. Kelch-like ECH-associated protein-1 (Keapl) (N-terminal tag), and empty plasmids of pRK5 were gifts. Full sequences of the genes were confirmed. The proteins expressed via transient transfection in HEK293T cells contain an additional 15 amino acids appended to their N-terminal methionine residue or C-terminus (MDYKD4KLKACGR (SEQ ID NO: 43) and A3G4DYKD4K (SEQ ID NO: 44), respectively). The DYKD4K (SEQ ID NO: 42) appendage in each contains the classic FLAG epitope that permits detection by western blotting or purification by affinity chromatography. Mutants of SCRN3 were generated using QuikChange site-directed mutagenesis with primers containing the desired mutations and their respective compliments. The gene for the deletion mutant of SCRN3 with the sequence MetlCys6-SCRN3 instead of Met1 Glu2Pro3Phe4Ser5Cys6-SCRN3 (SEQ ID NO: 45) was amplified from the wild-type C-terminal FLAG-tagged construct and cloned into the same vector.
(§8) HEK293T cells were grown to ˜40% confluence under standard growth conditions passaged in the appropriate media before adding the appropriate expression vector (control cells (‘mock’) received an equal amount of the appropriate empty vector) and polyethyleneimine (PEI) ‘MAX’ (MW 40,000, Polysciences Inc.) as a transfection reagent under standard transfection conditions (3:1 vector/PEI (w/w) ratio). Cells were incubated for ˜48 h before labelling in situ. Proteomes were processed for gel- and MS-based experiments as described above and in Example 2.
(§9) After scanning fluorescence, that same gel was transferred to nitrocellulose membrane in Towbin buffer, the membrane was blocked for ˜1 hour at ambient temperature with 5% nonfat dry milk (w/v) in Tris-buffered saline with Tween 20 (TBST) and incubated with primary antibodies in the same solution overnight at 4° C. The antibodies included anti-FLAG (1:2500, F1804, Sigma), anti-AdoMetDC (1:500, sc-160951, Santa Cruz Biotechnology) and anti-His6 (1:1000, ab18184, Abcam). The blots were washed (3×5 min, TBST), incubated with secondary antibodies (1:10,000, IRDye 800CW, LICOR) in milk for 1 hour at ambient temperature, washed again (3×5 min, TBST), and visualized on a LICOR Odyssey Scanner.

FTO = biological target: T7, FTO (Homo sapiens, UniProt Q9C0B1); test: gel-based RP-ABPP of transfected HEK293T cells; conditions: transfected HEK293T cells
T7 construct: Full-length genes encoding three probe 1- and one probe 2-targeted proteins were amplified from a cDNA library; expressed in transfected cells; host or cells: HEK293T
Protocol: as §6, §7, §8, §9

SCRN3 = biological target: T8, SCRN3 (Homo sapiens, UniProt Q0VDG4); test: gel-based RP-ABPP of transfected HEK293T cells; conditions: transfected HEK293T cells
T8 construct: Full-length genes encoding three probe 1- and one probe 2-targeted proteins were amplified from a cDNA library; expressed in transfected cells; host or cells: HEK293T
T8 sequence (Q0VDG4 6-424): T4 sequence (Q0VDG4 6-424)
Protocol: as §6, §7, §8, §9

- increase of probe 1 labeling of recombinant AMD1 (AMD1; L-methionine lowered from 200 μM to 10 μM, AMD1 expression negligibly changed): seven-fold
Compound: CSCC[C@H](N)C(=O)O [L-methionine]

- competition of probe 1 labelling by competitor drug [1]: Near complete loss of probe labelling
- competition of probe 1 labelling by competitor drug (LGMN Legumain (Q99538)): Near complete loss of probe labelling
- competition of probe 1 labelling by competitor drug [2]: Near complete loss of probe labelling
- competition of probe 1 labelling by competitor drug [3]: Near complete loss of probe labelling
Compound: NNCCc1ccccc1 [phenelzine, reference compound]

Compound: Cl.NNc1ccccc1 [probe 4, phenyl hydrazine hydrochloride, reference compound]
- blocking of probe labeling by excess non-clickable probe (AMD1; transfected HEK293T cells): blocked
- blocking of probe labeling by excess non-clickable probe (KEAP1): blocked
- blocking of probe labeling by excess non-clickable probe (FTO): blocked
- blocking of probe labeling by excess non-clickable probe (SCRN3): blocked
